The text below walks through data of the Bradley open melting point set (2014).

As usually defined, the melting point is the temperature of the solid-liquid transition.

“And” between values parts separate entries of the source, which are not always exact repeats. Equal values may be shown once. Where a name gives a salt, the structure may show the parent alone.

Compound `COc1ccc2c(c1)c(CC(=O)O)c(C)n2C(=O)c1ccc(Cl)cc1` [Indomethacin] had a melting point of 159 °C.

For `O=S1(=O)OC(c2cc(Br)c(O)c(Br)c2)(c2cc(Br)c(O)c(Br)c2)c2ccccc21`, the melting point amounted to 204 °C.

As for `O=C1CCC(c2ccccc2)CC1` [4-phenylcyclohexanone], the melting point was 80 °C.

The compound `CC12CCC(=O)CC1CCC1C2CCC2(C)C1CCC2(O)CCc1ccccc1` (configuration not stated) [17-hydroxy-21-phenylpregnan-3-one] yielded a melting point of 177 °C.

`O=C(O)CNC(=O)c1ccccc1` [hippuric acid] gave a melting point of 190 °C.

`CC(=O)OC1CCC2(C)C3CCC4=C(CCC4(C)C#CCl)C3CCC2(C)C1` (configuration not stated) [17-(chloroethynyl)-5,10,17-trimethylgon-13-en-3-yl acetate] returned a melting point of 110 °C.

Turning to `O=C(O)/C=C/c1ccc(C(F)(F)F)cc1` [trans-4-(trifluoromethyl)cinnamic acid], the melting point turned out to be 232 °C.

Regarding `CC(CCc1oc2ccc([N+](=O)[O-])cc2c1-c1ccc(C)o1)=NO`, the melting point came to 161 °C.

`O=C(O)CCc1ccccc1` gave a melting point of 49 °C.

Consider `CC1(C)CCC2=C1CCC1C2CCC2CC(=O)CCC21C` (configuration not stated) [10,17,17-trimethylgon-13-en-3-one], for which the melting point came to 135 °C.

Take `Cc1ccccc1/N=N/c1ccc(/N=N/c2c(O)ccc3ccccc23)c(C)c1`: the melting point came out at 199 °C.

`CC(=O)OC1(C(C)=O)CCC2(C)C(CCC3C4CCCC4(C)CCC32)C1` (configuration not stated) [3-acetylandrostan-3-yl acetate] came in with a melting point of 165 °C.

In the case of `c1ccc2c(c1)CCCC2` [1,2,3,4-Tetrahydronaphthalene], the melting point was -31 °C.

Compound `CCCCCC(N)=O` [hexanamide] gave a melting point of 101 °C.

On to `C/C=C/c1ccc(OC)cc1` [trans-anethole], for which the melting point was found to be 22 °C.

With `OCc1ccc(Cl)cc1` [4-chlorobenzyl alcohol], the melting point worked out at 71 °C.

Consider `O=C(O)c1ccc(Br)cc1` [4-bromobenzoic acid], for which the melting point was 253 °C.

In the case of `CC(C)OP(=O)(CCP(=O)(OC(C)C)OC(C)C)OC(C)C` [tetraisopropyl 1,2-ethylenediphosphonate], the melting point stood at 36 °C.

In the case of `Cc1cccnc1` [3-picoline], the melting point was -18 °C.

On to `O=C(O)CCCCCCCBr` [8-bromooctanoic acid], for which the melting point was 39 °C.

`Nc1cc(C(=O)O)ccc1Cl` [3-amino-4-chlorobenzoic acid]: the melting point was 216 °C.

Regarding `O=C(O)C(Sc1ccccc1)c1ccccc1` (stereo not drawn) [alpha-(phenylthio)phenylacetic acid], the melting point came out at 100 °C.

In turn, `CCC1(C(C)C)C(=O)NC(=O)NC1=O` [probarbital] yielded a melting point of 203 °C.

As to `Nc1ccn([C@@H]2O[C@H](CO)[C@@H](O)[C@@H]2O)c(=O)n1` [Cytarabine], the melting point was 212 °C.

`O=[N+]([O-])c1cccc(C=NO)c1` [m-Nitrobenzaldehyde oxime] showed a melting point of 120 °C.

Take `CC1=CCCCC1` [1-methylcyclohexene]: the melting point was -120 °C.

Take `O=C(O)c1ccc(-c2ccc(O)cc2)cc1` [4'-hydroxybiphenyl-4-carboxylic acid]: the melting point stood at 294 °C.

`O=Cc1ccc(Cl)c(Cl)c1` [3,4-dichlorobenzaldehyde] returned a melting point of 44 °C.

`Cc1ccnc(NS(=O)(=O)c2ccc(N)cc2)n1` [Sulfamerazine]: the melting point amounted to 236 °C.

In the case of `Cc1cccc(C(=O)O)c1` [m-toluic_acid], the melting point turned out to be 110 °C.

As to `COc1ccc(B(O)O)cc1OC` [3,4-dimethoxybenzeneboronic acid], the melting point is 240 °C.

Compound `COc1ccc(C)cc1O` [2-methoxy-5-methylphenol] yielded a melting point of 37 °C.

`COc1ccc(Cl)cc1C(=O)NCCc1ccc(S(=O)(=O)NC(=O)NC2CCCCC2)cc1` [Glibenclamide] registered a melting point of 170 °C.

In the case of `COC(=O)c1ccc([N+](=O)[O-])cc1` [methyl 4-nitrobenzoate], the melting point was 96 °C.

Take `COC(CN1CCN(CC(O)C(OC)c2ccccc2)CC1)c1ccccc1` (configuration not stated) [zipeprol]: the melting point came out at 83 °C.

As for `O=C(CCC(=O)c1ccccc1)c1ccccc1` [1,2-dibenzoylethane], the melting point stood at 146 °C.

In turn, `OB(O)c1ccc(Cl)cc1C(F)(F)F` [4-chloro-2-(trifluoromethyl)benzeneboronic acid] came in with a melting point of 181 °C.

In turn, `ICI` [diiodomethane] showed a melting point of 6 °C.

The compound `O=C1OC(=O)C2C3C=CC(C3)C12` (stereo not drawn) [cis-5-norbornene-endo-2,3-dicarboxylic anhydride] registered a melting point of 166 °C.

`CCC1(C2=CCCCCC2)C(=O)NC(=O)NC1=O` [heptabarbital] returned a melting point of 174 °C.

Take `Nc1ccc(OCCCCCN2C(=O)c3ccccc3C2=O)cc1` [amphotalide]: the melting point worked out at 113 °C.

`O=C1C=CCCC1` [2-cyclohexen-1-one] had a melting point of -53 °C.

Consider `c1ccc(CN(Cc2ccccc2)Cc2ccccc2)cc1` [tribenzylamine], for which the melting point was 93 °C.

As to `c1ccc2c(c1)cc1ccc3cccc4ccc2c1c34` [benzo[a]pyrene], the melting point was 176 °C and 179 °C.

On to `N#Cc1ccc(F)cc1[N+](=O)[O-]` [4-fluoro-2-nitrobenzonitrile], for which the melting point worked out at 71 °C.

As for `Clc1cccc(Cl)c1N=C1NCCN1` [Clonidine], the melting point was 130 °C.

In turn, `Cc1ccc(S(=O)(=O)CC(=O)O)cc1` [p-toluenesulfonylacetic acid] had a melting point of 118 °C.

For `OCc1c2ccccc2cc2ccccc12` [9-anthracenemethanol], the melting point was found to be 163 °C.

On to `Cc1cc(C=O)c(C)n1-c1ccc(C(F)(F)F)cc1` [OSM-S-34], for which the melting point turned out to be 86 °C.

Compound `CC(=O)OC1CCC2(C)C3CCC4(C)C(=O)CCC4C3C(=O)CC2(C)C1` (configuration not stated) [5-methyl-7,17-dioxoandrostan-3-yl acetate] yielded a melting point of 155 °C.

`CCCCCCCCCC(C)=O` [2-undecanone] registered a melting point of 12 °C.

`CCCCC=O` [pentanal]: the melting point is -91 °C.

Take `CCOC(=O)Nc1ccc2c(c1)N(C(=O)CCN1CCOCC1)c1ccccc1S2` [moricizine]: the melting point was 156 °C.

`CC(C)(C)CS` [2,2-dimethyl-1-propanethiol]: the melting point was -67 °C.

As for `CCCC(=O)c1cc2ccccc2oc1=O` [3-butyrylcoumarin], the melting point worked out at 94 °C.

Compound `O=C(/C=C/c1ccccc1)c1ccc(Cl)cc1` [4'-chlorochalcone] came in with a melting point of 99 °C.

The compound `COC(=O)c1ccc(C=O)cc1` [methyl 4-formylbenzoate] returned a melting point of 61 °C.

For `NC(=O)N1c2ccccc2C=Cc2ccccc21` [carbazepine], the melting point is 190 °C and 192 °C (2×).

Take `C=C1N(C)c2ccccc2C1(C)C` [1,3,3-trimethyl-2-methyleneindoline]: the melting point is -10 °C.

`C=CCC1(CC(C)C)C(=O)NC(=O)NC1=O` [Butalbital]: the melting point came to 138 °C.

`CCC1(CC)C(=O)NC(=O)NC1=O` [Barbital] yielded a melting point of 190 °C.

Regarding `Sc1ccccc1` [thiophenol], the melting point was -15 °C.

`CCn1c2ccccc2c2ccccc21` [9-ethylcarbazole] returned a melting point of 69 °C.

`CCC1(c2ccccc2)C(=O)NCNC1=O` [primidone] yielded a melting point of 282 °C.

`CCCCCCCCCCC` [N-undecane] returned a melting point of -26 °C.

In turn, `Cc1ccc(C(C)C)cc1O` [5-Isopropyl-2-methylphenol] showed a melting point of 2 °C.

Regarding `Oc1ccccc1-c1nc2ccccc2s1` [2-(2-hydroxyphenyl)benzothiazole], the melting point came to 132 °C.

Compound `COC(=O)C(=O)OC` [dimethyl oxalate] registered a melting point of 52 °C.

In turn, `Nc1ccccc1F` [2-Fluoroaniline] yielded a melting point of -34.6 °C.

Consider `Nc1ccc(Cl)cc1Cl` [2,4-dichloroaniline], for which the melting point is 61 °C.

`COC(=O)CCC(C)C1CCC2C3C(OC(C)=O)C(Br)C4CCCCC4(C)C3CCC12C` (configuration not stated) [methyl 7-(acetyloxy)-6-bromocholan-24-oate] had a melting point of 159 °C.

The compound `CC(C)(C)NCC(O)c1ccc(O)c(CO)c1` (configuration not stated) [Salbutamol] yielded a melting point of 158 °C.

In turn, `COc1cc(Cl)ccc1O` [4-chloro-2-methoxyphenol] showed a melting point of 17 °C.

With `COc1ccc(/C=C/C(=O)O)c(Cl)c1OC` [2-chloro-3,4-dimethoxycinnamic acid], the melting point worked out at 195 °C.

As for `NC(=O)c1ccccc1Br` [2-bromobenzamide], the melting point turned out to be 161 °C.

Compound `O=C(c1ccccc1)c1ccc(C(F)(F)F)cc1` [4-(trifluoromethyl)benzophenone] displayed a melting point of 118 °C.

As to `Clc1ccc(-c2ccnc(Cl)c2)cn1` [6,2'-dichloro-3,4'-bipyridine], the melting point was 222 °C.

`C=CCCCCCCC` [1-nonene] showed a melting point of -81 °C.

`Nc1c(C(=O)O)cccc1C(F)(F)F` [2-amino-3-(trifluoromethyl)benzoic acid] had a melting point of 155 °C.

On to `C=CCCCCCCCCCCCCCC` [1-hexadecene], for which the melting point amounted to 4 °C.

`COc1c(C)cc(B(O)O)cc1C` [4-methoxy-3,5-dimethylbenzeneboronic acid] registered a melting point of 237 °C.

As to `COc1cc(/C=C/C(=O)O)cc(OC)c1O` [sinapic acid], the melting point was found to be 195 °C.

Compound `O=C(/C=C1\Cc2ccccc21)c1ccccc1` gave a melting point of 55 °C.

As to `O=C(O)Cc1cccc(C(F)(F)F)c1` [3-(trifluoromethyl)phenylacetic acid], the melting point turned out to be 78 °C.

The compound `Nc1cc(C(F)(F)F)ccc1N1CCOCC1` [2-(4-morpholinyl)-5-(trifluoromethyl)aniline] showed a melting point of 127 °C.

In turn, `O=[N+]([O-])c1ccc(Cl)c(Cl)c1` [1,2-dichloro-4-nitrobenzene] came in with a melting point of 41 °C.

The compound `O=C(N[C@@H](Cc1c[nH]c2ccccc12)C(=O)O)OCc1ccccc1` [N(alpha)-benzyloxycarbonyl-l-tryptophan] returned a melting point of 124 °C.
